According to publication PMC6348446 (Journal of Medicinal Chemistry, 2018):
“And” between values parts separate entries of the source, which are not always exact repeats. Identical values can stand only once.

What was measured:
BRD7 = molecular target: T1, BRD7 (Homo sapiens, UniProt Q9NPI1); experiment: Western blot of BRD7 levels in RI-1 cells after compound treatment; format: cell-based; conditions: for BRD7 degradation: 4 h
T1 construct: Western blot analysis of BRD9 and BRD7 levels after treatment of HeLa cells; endogenous in cells; host or cells: HeLa
T1 sequence (Q9NPI1 1-651): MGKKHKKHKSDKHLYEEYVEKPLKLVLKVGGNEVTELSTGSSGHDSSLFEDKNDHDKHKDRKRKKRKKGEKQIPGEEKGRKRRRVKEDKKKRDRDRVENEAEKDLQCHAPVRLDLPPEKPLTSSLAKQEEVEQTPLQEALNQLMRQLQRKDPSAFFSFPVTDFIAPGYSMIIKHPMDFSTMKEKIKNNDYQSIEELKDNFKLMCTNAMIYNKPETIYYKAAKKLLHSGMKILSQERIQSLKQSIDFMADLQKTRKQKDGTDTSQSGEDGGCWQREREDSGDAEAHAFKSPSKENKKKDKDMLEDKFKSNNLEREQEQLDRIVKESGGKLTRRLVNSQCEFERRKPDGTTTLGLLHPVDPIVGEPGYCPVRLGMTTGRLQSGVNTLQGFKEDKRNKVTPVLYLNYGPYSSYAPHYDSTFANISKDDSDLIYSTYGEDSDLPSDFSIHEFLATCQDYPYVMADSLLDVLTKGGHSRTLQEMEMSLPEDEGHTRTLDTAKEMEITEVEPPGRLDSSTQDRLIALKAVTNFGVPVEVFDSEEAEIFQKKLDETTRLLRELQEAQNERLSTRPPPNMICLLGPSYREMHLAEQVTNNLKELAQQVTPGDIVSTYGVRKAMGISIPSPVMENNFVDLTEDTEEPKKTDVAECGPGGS
Method: HeLa and Hek293 cells were seeded at either 0.3 × 10^6 or 0.5 × 10^6 cells per well in 6-well plate in 2 mL of medium. At 80% confluency, cells were treated with compounds at the desired concentration, with final DMSO concentration of 0.1% v/v. Cells were incubated at 37 °C and 5% of CO2 for the desired time before harvesting. For protein extraction from adherent cells, cells were washed twice with DPBS (Gibco) and lysed with RIPA buffer (Sigma-Aldrich), supplemented with cOmplete Mini EDTA-free protease inhibitor cocktail (Roche). Insoluble material was removed by centrifugation at 14 000 rpm for 15 min at 4 °C. Supernatant was collected and protein concentration was quantified by Bradford assay (Thermo Scientific no. 23200, mean of two replicates). For RI-1 cells, (1–1.5) × 10^6 cells/mL were seeded in 6-well plate in 2 mL of medium. The day after, cells were treated with compounds at the desired concentration, with final DMSO concentration of 0.1% v/v. Before harvesting, cells were incubated at 37 °C and 5% CO2 for the desired time. Cells were washed twice with DPBS (Gibco) and lysed with RIPA buffer (Sigma-Aldrich), supplemented with cOmplete Mini EDTA-free protease inhibitor cocktail (Roche). Lysates were sonicated (10 s) and centrifuged at 14 000 rpm for 20 min at 4 °C. Supernatant was collected, and protein concentration was quantified by Bradford assay (mean of two replicates). For EOL-1 and A-204 cell line, 20 000 cells were seeded in 300 μL per well in a 24-well plate and incubated at 37 °C overnight. Compounds were added from DMSO stock solution using a digital dispenser D300 (Tecan), normalizing for added DMSO, and cells were incubated at 37 °C for 18 h. Medium was removed, and cells were washed with PBS and lysed in 80 μL of lysis buffer (1% Triton, 350 mM KCl, 10 mM Tris, pH 7,4, phosphatase-protease inhibitor cocktail (Thermo Scientific no. 1861281), 10 mM DTT, Benzonase 0.5 μL/ml (Novagen no. 70746 10KU, 25 U/μL)) for 30 min on ice before insoluble debris was pelleted by centrifugation.
Cells were seeded in 6-well plates with 5 × 10^5 cells per well in 2 mL of complete medium to aim for 80% confluence on the day of treatment. At time zero, ML4924 was added at final concentration of 3 μM with 0.1% v/v of DMSO. DMSO was added to the remaining wells in order to match concentration of vehicle in all wells. […]
Proteins were resolved by SDS–PAGE on NuPage 4–12% Bis-Tris Midi Gel (Invitrogen) and transferred to Amersham Protran 0.45 NC nitrocellulose membrane (GE Healthcare) using wet transfer. […] ImageJ software was used for band quantification, and the last was reported as relative amount as ratio of each protein band relative to the lane’s loading control. […]

[1] = molecular target: T2, VCB and BRD9-BD (ternary complex) (Homo sapiens, UniProt P40337+Q9H8M2); experiment: ITC, VCB titrated into BRD9-BD:PROTAC binary complex (ternary); format: binding; conditions: 25 °C; for N (stoichiometry), VCB into BRD9-BD:PROTAC complex / ΔG, VCB into BRD9-BD:PROTAC complex / ΔH, VCB into BRD9-BD:PROTAC complex / –TΔS, VCB into BRD9-BD:PROTAC complex: ITC; for cooperativity α (ITC): binary versus ternary VCB binding
T2 construct: the bromodomain (residues 134–239) for BRD9 (Q9H8M2); His6 (cleaved yes); made in house; host or cells: Escherichia coli BL21(DE3)
T2 sequence (P40337 54-213 limits assumed, one chain of several): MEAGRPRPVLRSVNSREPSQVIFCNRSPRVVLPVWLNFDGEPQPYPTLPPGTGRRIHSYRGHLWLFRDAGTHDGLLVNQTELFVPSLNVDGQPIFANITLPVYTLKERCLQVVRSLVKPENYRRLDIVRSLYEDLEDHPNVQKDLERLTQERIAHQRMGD
T2 sequence (Q15369 17-112 partner limits assumed, one chain of several): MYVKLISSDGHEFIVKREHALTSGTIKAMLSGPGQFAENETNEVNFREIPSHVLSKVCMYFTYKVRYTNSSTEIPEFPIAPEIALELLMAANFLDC
T2 sequence (Q15370 1-104 partner limits assumed, one chain of several): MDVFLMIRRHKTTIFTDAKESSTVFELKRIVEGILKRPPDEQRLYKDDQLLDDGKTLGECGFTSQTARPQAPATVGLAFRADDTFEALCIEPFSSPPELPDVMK

[2] = molecular target: T3, BRD9 bromodomain (BRD9-BD) (Homo sapiens, UniProt Q9H8M2); experiment: ITC, BRD9-BD titrated into PROTAC (binary); format: binding; conditions: 25 °C
T3 construct: the bromodomain (residues 134–239) for BRD9 (Q9H8M2); His6 (cleaved yes); made in house; host or cells: Escherichia coli BL21(DE3)
T3 sequence (Q9H8M2 134-239): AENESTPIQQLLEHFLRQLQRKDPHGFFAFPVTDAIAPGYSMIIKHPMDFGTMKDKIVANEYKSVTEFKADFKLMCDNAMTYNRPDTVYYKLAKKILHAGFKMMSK

[3] = molecular target: T4, VCB in the presence of BRD9-BD (Homo sapiens, UniProt P40337+Q9H8M2); experiment: Fluorescence polarization, displacement of FAM-labeled HIF-1α peptide in the presence of BRD9-BD (ternary); format: binding; conditions: binary versus ternary
T4 construct: the bromodomain (residues 134–239) for BRD9 (Q9H8M2); His6 (cleaved yes); made in house; host or cells: Escherichia coli BL21(DE3)
T4 sequence (P40337 54-213 limits assumed, one chain of several): as the sequence (P40337 54-213 limits assumed, one chain of several) above
T4 sequence (Q15369 17-112 partner limits assumed, one chain of several): as the sequence (Q15369 17-112 partner limits assumed, one chain of several) above
T4 sequence (Q15370 1-104 partner limits assumed, one chain of several): as the sequence (Q15370 1-104 partner limits assumed, one chain of several) above

Row | Compound | BRD7 degradation (BRD7; 100 nM) | N (stoichiometry), VCB into BRD9-BD:PROTAC complex [1] | ΔG, VCB into BRD9-BD:PROTAC complex [1] | ΔH, VCB into BRD9-BD:PROTAC complex [1] | –TΔS, VCB into BRD9-BD:PROTAC complex [1] | cooperativity α (ITC) [1] | N (stoichiometry), BRD9-BD into PROTAC [2] | ΔG, BRD9-BD into PROTAC [2] | ΔH, BRD9-BD into PROTAC [2] | –TΔS, BRD9-BD into PROTAC [2] | cooperativity α (FP) [3] | cooperativity α (ITC) ([1]; listed as VZ185) | decrease of BRD7 level (BRD7; 100 nM, 30 min) | concentration window of maximal protein degradation of BRD7 (BRD7; 2 and 8 h)
1 | COc1cc(-c2cn(C)c(=O)c3cnccc23)cc(OC)c1CN1CCN(CCCCCOc2cc(-c3scnc3C)ccc2CNC(=O)[C@@H]2C[C@H](O)CN2C(=O)[C@@H](NC(=O)C2(F)CC2)C(C)(C)C)CC1 [cisVZ185] | no degradation | – | – | – | – | – | – | – | – | – | – | – | – | –
2 | COc1cc(-c2cn(C)c(=O)c3cnccc23)cc(OC)c1CN1CCN(CCOCCOCCOc2cc(-c3scnc3C)ccc2CNC(=O)[C@@H]2C[C@@H](O)CN2C(=O)[C@@H](NC(=O)C2(F)CC2)C(C)(C)C)CC1 [Compound 26, (2S,4R)-N-(2-(2-(2-(2-(4-(2,6-Dimethoxy-4-(2-methyl-1-oxo-1,2-dihydro-2,7-naphthyridin-4-yl)benzyl)piperazin-1-yl)ethoxy)ethoxy)ethoxy)-4-(4-methylthiazol-5-yl)benzyl)-1-((S)-2-(1-fluorocyclopropane-1-carboxamido)-3,3-dimethylbutanoyl)-4-hydroxypyrrolidine-2-carboxamide] | – | 0.99 | –9.7 ± 0.2 kcal/mol | –6.4 ± 0.2 kcal/mol | –3.3 ± 0.2 kcal/mol | 1 and 1.05 | 1.00 | –11.0 ± 0.1 kcal/mol | –11.4 ± 0.1 kcal/mol | 0.44 ± 0.05 kcal/mol | 1.17 | – | – | –
3 | COc1cc(-c2cn(C)c(=O)c3cnccc23)cc(OC)c1CN1CCN(CCCCCOc2cc(-c3scnc3C)ccc2CNC(=O)[C@@H]2C[C@@H](O)CN2C(=O)[C@@H](NC(=O)C2(F)CC2)C(C)(C)C)CC1 [Compound 51, (2S,4R)-N-(2-((5-(4-(2,6-Dimethoxy-4-(2-methyl-1-oxo-1,2-dihydro-2,7-naphthyridin-4-yl)benzyl)piperazin-1-yl)pentyl)oxy)-4-(4-methylthiazol-5-yl)benzyl)-1-((S)-2-(1-fluorocyclopropane-1-carboxamido)-3,3-dimethylbutanoyl)-4-hydroxypyrrolidine-2-carboxamide] | more than 90% | 0.73 | –10.33 ± 0.08 kcal/mol | –5.1 ± 0.1 kcal/mol | –5.3 ± 0.1 kcal/mol | – | 0.77 | –11.35 ± 0.05 kcal/mol | –12.8 ± 0.1 kcal/mol | – | 1.00 | 0.97 and 0.96 | more than 50% | 0.1 to 1 µM
4 | COc1cc(-c2cn(C)c(=O)c3cnccc23)cc(OC)c1CN1CCN(CCOCCOCC(=O)N[C@H](C(=O)N2C[C@H](O)C[C@H]2C(=O)NCc2ccc(-c3scnc3C)cc2)C(C)(C)C)CC1 [Compound 5, (2S,4R)-1-((S)-2-(2-(2-(2-(4-(2,6-Dimethoxy-4-(2-methyl-1-oxo-1,2-dihydro-2,7-naphthyridin-4-yl)benzyl)piperazin-1-yl)ethoxy)ethoxy)acetamido)-3,3-dimethylbutanoyl)-4-hydroxy-N-(4-(4-methylthiazol-5-yl)benzyl)pyrrolidine-2-carboxamide] | – | 0.75 ± 0.05 | –9.7 ± 0.1 kcal/mol | –6.4 ± 0.1 kcal/mol | –3.3 ± 0.1 kcal/mol | – | 0.753 ± 0.004 | –10.7 ± 0.1 kcal/mol | – | – | 0.24 | – | – | –
